Values quoted from earlier work, collected in US10314922B2, “Trimaleimide linkers and uses thereof” (NewBio Therapeutics, Inc., priority 2015, dated 2019).

System: human carcinoma lines

- IC50: 100 to 200 nM
Structure (SMILES): COc1cccc2c1C(=O)c1c(O)c3c(c(O)c1C2=O)C[C@@](O)(C(=O)CO)C[C@@H]3O[C@H]1C[C@H](N)[C@H](O)[C@H](C)O1 [doxorubicin, Doxorubicin]
